Measured values: US11413261B2, “Pharmaceutical composition for treating cancer comprising lactate metal salt” (METIMEDI PHARMACEUTICALS CO., LTD, priority 2014, dated 2022)

Tests used:
[1] = system: human colorectal cancer cell lines (HCT-116 and HT-29); assay: Calcium level in cancer cells (Fluo-3/AM, confocal microscope); assay type: cell-based; details: 2.5 mM, 24 hours, vs untreated
Method: Each of human colorectal cancer cell lines (HCT-116 and HT-29) with the cell number of 5×10^5 cells cultured in a cancer cell culture medium (RPMI1640 medium including 10% FBS and 1% penicillin/streptomycin) at 37° C. with 5% CO2 was treated with 2.5 mM calcium lactate and then cultured for 24 hours. The cultured cancer cells were treated with 10 μM Fluo-3/AM calcium indicator and 25% Pluronic F-127, reacted at 37° C. for 30 minutes, applied with fluorescence probes, and then photographed with a confocal microscope (FIG. 2). In this case, cancer cells untreated with calcium lactate were used as control groups.

β-catenin = β-catenin and activated β-catenin protein expression in breast cancer cell lines; assay type: cell-based, human; details: MCF-7 and MDA-MB-231; with increasing concentration
Method: Using the same method as that of Example 3-1 the expression levels of β-catenin and activated β-catenin depending on the concentration of calcium lactate were compared at the protein expression level (FIG. 6) with a human breast cancer cell line (MCF-7) cultured in a cancer cell culture medium (RPMI1640 medium including 10% FBS and 1% penicillin/streptomycin) at 37° C. with 5% CO2 and a human breast cancer cell line (MDA-MB-231) cultured in another cancer cell culture medium (DMEM medium including 10% FBS and 1% penicillin/streptomycin) at 37° C. with 5% CO2.

[2] = system: breast cancer cell lines (MCF-7 and MDA-MB231); assay: Cell migration of breast cancer cell lines; assay type: cell-based; details: 2.5 mM, vs untreated
Method: A colorectal cancer cell line HCT-116 with the cell number of 4×10^5 cells was inoculated into a culture container at the center of which an ibidi culture insert having a thickness of 500 μm was placed, and treated with 2.5 mM calcium lactate and then cultured for 24 hours. Then, the insert was removed and further cultured for 12 hours to analyze migration of the cancer cells to a site where the insert was removed using a JuLi Br, Live cell analyzer (NanoEnTek Inc., South Korea) (FIG. 18). In this case, a colorectal cancer cell line cultured without treating with calcium lactate was used as a control group.
Using the same method as Example 8-1, with breast cancer cell lines (MCF-7 and MDA-MB231) instead of the colorectal cancer cell line, an effect of calcium lactate on migration of the breast cancer cell lines was examined (FIG. 19).

[3] = system: human colorectal cancer cell lines (HT-29 and HCT-116); assay: Colony-forming ability, anticancer drug in combination with calcium lactate (6-well plates); assay type: cell-based; details: 2.5 mM calcium lactate alone, vs control
Method: Human colorectal cancer cell lines (HT-29 and HCT-116) with the cell number of 1×10^3 cells were seeded into an RPMI1640 medium in each of 6-well plates. After one day, the medium was replaced with fresh medium and the cells were treated with 2.5 mM calcium lactate or 1 μM, 2.5 μM, and 5 μM Imatinib alone or treated with various concentrations (1 μM, 2.5 μM, and 5 μM) of Imatinib in combination with 2.5 mM calcium lactate. Then, the colony-forming abilities of the cells were compared. In this case, human colorectal cancer cell lines (HT-29 and HCT-116) untreated with any drug were used as control groups (FIGS. 38a, 38b, 39a and 39b).
Human colorectal cancer cell lines (HT-29 and HCT-116) with the cell number of 1×10^3 cells were seeded into an RPMI1640 medium in each of 6-well plates. After one day, the medium was replaced with fresh medium and the cells were treated with 2.5 mM calcium lactate or 2.5 μM, 5 μM, and 10 μM 5-FU alone or treated with various concentrations (2.5 μM, 5 μM, and 10 μM) of 5-FU in combination with 2.5 mM calcium lactate. Then, the colony-forming abilities of the cells were compared. In this case, human colorectal cancer cell lines (HT-29 and HCT-116) untreated with any drug were used as control groups (FIGS. 40a, 40 b, 41a and 41b).

[4] = system: human lung cancer cell line (A549); assay: as above; assay type: cell-based; details: 2.5 mM calcium lactate alone, vs control
Method: Human breast cancer cell line (MCF-7) and a human lung cancer cell line (A549) with the cell number of 1×10^3 cells were seeded into an RPMI1640 medium in each of 6-well plates. […]. Then, the colony-forming abilities of the cells were compared. In this case, a human breast cancer cell line (MCF-7) and a human lung cancer cell line (A549) untreated with any drug were used as control groups (FIGS. 42a, 42b, 43a and 43b).
Human lung cancer cell line (A549) with the cell number of 1×10^3 cells were seeded into an RPMI1640 medium in each of 6-well plates. […]. Then, the colony-forming abilities of the cells were compared. In this case, a human lung cancer cell line (A549) untreated with any drug was used as a control group (FIGS. 44a and 44b).
Human lung cancer cell line (A549) with the cell number of 1×10^3 cells were seeded into an RPMI1640 medium in each of 6-well plates. […]. Then, the colony-forming abilities of the cells were compared. In this case, a human lung cancer cell line (A549) untreated with any drug was used as a control group (FIGS. 47a and 47b).
Human lung cancer cell line (A549) with the cell number of 1×10^3 cells were seeded into an RPMI1640 medium in each of 6-well plates. […]. Then, the colony-forming abilities of the cells were compared. In this case, a human lung cancer cell line (A549) untreated with any drug was used as a control group (FIGS. 49a and 49b).
Human lung cancer cell line (A549) with the cell number of 1×10^3 cells were seeded into an RPMI1640 medium in each of 6-well plates. […]. Then, the colony-forming abilities of the cells were compared. In this case, a human lung cancer cell line (A549) untreated with any drug was used as a control group (FIGS. 50a and 50b).
Human lung cancer cell line (A549) with the cell number of 1×10^3 cells were seeded into an RPMI1640 medium in each of 6-well plates. […]. Then, the colony-forming abilities of the cells were compared. In this case, a human lung cancer cell line (A549) untreated with any drug was used as a control group (FIGS. 51a and 51b).

[5] = system: human liver cancer cell line (Hep3B); assay: as above; assay type: cell-based; details: 2.5 mM calcium lactate alone, vs control
Method: Human liver cancer cell line (Hep3B) with the cell number of 1×10^3 cells were seeded into an RPMI1640 medium in each of 6-well plates. After one day, the medium was replaced with fresh medium and the cells were treated with 2.5 mM calcium lactate or 1 μM, 2.5 μM, and 5 μM Sorafenib alone or treated with various concentrations (1 μM, 2.5 μM, and 5 μM) of Sorafenib in combination with 2.5 mM calcium lactate. Then, the colony-forming abilities of the cells were compared. In this case, a human liver cancer cell line (Hep3B) untreated with any drug was used as a control group (FIGS. 45a and 45b).

Compound: CC(O)C(=O)[O-].CC(O)C(=O)[O-].[Ca+2] (stereo not shown) [calcium lactate]
- concentration of calcium in cancer cells [1]: increased
- protein expression levels of activated β-catenin (β-catenin): decreased
- protein expression levels of β-catenin (β-catenin): decreased
- cell migration (metastatic capacity) [2]: relatively low levels of metastasis
- colony-forming ability [3]: suppressed
- colony-forming ability [4]: suppressed
- colony-forming ability [5]: suppressed
